# Patent US20260275295A1, “LIVER ORGANOIDS WITH INTRAHEPATIC SYMPATHETIC NERVES AND METHODS OF USE THEREOF” (CHILDREN'S HOSPITAL MEDICAL CENTER, priority 2023, published 2026)
# B1: BDNF: brain derived neurotrophic factor, neuron attractive factor (protein, UniProt P23560 19-247, looked up)
# Neurotrophic factor BDNF …: APMKEANIRGQGGLAYPGVRTHGTLESVNGPKAGSRGLTSLADTFEHVIEELLDEDQKVRPNEENNKDADLYTSRVMLSSQVPLEPPLLFLLEEYKNYLDAANMSMRVRRHSDPARRGELSVCDSISEWVTAADKKTAVDMSGGTVTVLEKVPVSKGQLKQYFYETKCNPMGYTKEGCRGIDKRHWNSQCRTTQSYVRALTMDSKKRIGWRFIRIDTSCVCTLTIKRGR
# Columns and labels:
# [1] = tested on: adrenergic receptor signaling; experiment: intracellular cAMP levels in human liver organoids; type: cell-based; details: compared to untreated organoids
# Description: The sympathetic neurons, or sympathetic nerves, in human liver organoids were ablated by 6-hydroxydopamine (6-OHDA), a sympathetic-specific toxin, and the intracellular levels of cyclic AMP (CAMP), a second messenger of adrenergic receptors in human liver organoids, were measured.
# human liver organoids = experiment: RT-qPCR of gluconeogenesis, lipogenesis and cytokine genes in liver organoids; type: cell-based
# [2] = tested on: hepatocytes of human liver organoids; experiment: TG accumulation in hepatocytes of organoids, live cell imaging with BODIPY 493/503; type: cell-based
# Description: Next, it was determined whether sympathetic neurons, or sympathetic nerves, in human liver organoids contribute to lipid accumulation in hepatocytes. After treatment with 6-OHDA, triglyceride (TG) in hepatocytes of the organoids were measured by live cell imaging using BODIPY 493/503, a fluorescent probe for TG, and the accumulation of TG in hepatocytes of 6-OHDA-treated and untreated organoids was compared. TG accumulation in hepatocytes of 6-OHDA-treated organoids was about twice that of untreated organoids (FIG. 8A). In addition, TG accumulation in hepatocytes of organoids treated with 6-OHDA and then exposed to oleic acid (OA) for 3 days was about 3-fold higher than that of OA-only treated organoids (FIG. 8A).
# [3] = tested on: human liver organoids (HLOs); experiment: immunostaining and cell volume analysis of TUBB3+ and TH+ nerves in HLOs; type: cell-based
# Description: Single cell RNA sequencing (scRNAseq) and real-time PCR quantification of gene expression were performed in day 20 (D20) liver organoids, and it was noted that the neuron attractive factor BDNF was highly expressed in hepatic stellate-like cells of the liver organoids. (FIG. 13). HLOs were treated with and without 1 μM BDNF inhibitor ANA12 for 5 days from day 15 (D15) to day 20 (D20) of differentiation induction. […] (FIG. 14). […] HLOs were treated with and without 100 nM of BDNF for 13 days from day 15 (D15) to day 28 (D28) of differentiation induction.
# [4] = tested on: human liver organoids (HLOs); experiment: generation of neural crest cells and sympathetic neurons in HLOs (real-time PCR, whole mount immunostaining, flow cytometry); type: cell-based
# [5] = tested on: human liver organoids (HLOs); experiment: albumin (ALB) secretion of HLOs; type: cell-based
# [6] = tested on: human liver organoids (HLOs); experiment: gene expression of liver markers / liver induction in HLOs; type: cell-based
# foregut spheroids = experiment: real-time PCR of neural crest markers in foregut spheroids; type: cell-based, human; details: 250 nM, 500 nM, or 1000 nM for 72 hours D3 to D6, PCR on D6
# Description: (§1) Foregut spheroids were treated with 250 nM, 500 nM, or 1000 nM of the BMP inhibitor LDN193189 for 72 hours from day 3 (D3) to day 6 (D6) of differentiation, and real-time PCR quantification was performed on D6. […] (FIG. 12). […] (FIG. 15A).
# [7] = tested on: human liver organoids (HLOs); experiment: generation of neural crest cells and sympathetic neurons in HLOs (real-time PCR, whole mount immunostaining, flow cytometry); type: cell-based; remark: listed apart in the source
# Description: as §1
# [8] = tested on: HLO derived from two different iPS lines; experiment: amount of TH+ cells in OA-treated HLO (NASH model); type: cell-based, human; details: OA treatment
# Excerpt: FIG. 25 depicts the effect of OA treatment in increasing the amount of TH+ cells in HLO derived from two different iPS lines, showing an increase in innervation in a NASH model.
# • 1. The distribution of sympathetic nerves projected to the liver is very different in humans as compared to experimental model animals, such as mice and rats. The presently described sympathetic neuron-containing human liver organoid model is expected to elucidate the distinctive mechanisms and timing of intrahepatic sympathetic projections during human liver development. • 2. Although it has been reported that sympathetic nerves contribute to the development and function of multiple organs, little is known regarding sympathetic nerves in the liver. This model leads to the identification of sympathetic effects on human liver development and the elucidation of their mechanisms of action. The model can also enable construction of enhanced (or mature) liver organoids by artificially regulating sympathetic nerve activity. • 3. The sympathetic nervous system has been reported to regulate gluconeogenesis in humans, but the mechanism by which it is promoted is unknown. Using this model, the mechanisms of human hepatic sympathetic innervation in gluconeogenesis can be elucidated. • 4. […] This model will allow us to identify the role of sympathetic nerves and their mechanisms in liver diseases. […]
# [9] = RT-qPCR, 6-OHDA treated organoids vs control
# [10] = steatosis conditions (oleic acid), relative to those not treated with 6-OHDA
# [11] = SB alone, 10 μM, days 3-6, listed as SB
molecule,measurement,setting,value
"NCCc1cc(O)c(O)cc1O [6-OHDA, 6-hydroxydopamine]",concentration of cAMP,[1],significantly decreased
same,expression of CD36,human liver organoids; [9],increased expression
same,expression of G6PC,human liver organoids; [9],increased expression
same,expression of PCK1,human liver organoids; [9],increased expression
same,expression of SCD,human liver organoids; [9],increased expression
same,expression of CXCL8 (IL8),human liver organoids; [10],increased expression
same,expression of TNF,human liver organoids; [10],increased expression
same,TG accumulation in hepatocytes,"[2]; 6-OHDA then oleic acid (OA) for 3 days, vs OA-only treated organoids",about 3 fold
same,TG accumulation in hepatocytes,[2]; 6-OHDA-treated vs untreated organoids,about twice
O=C(Nc1ccccc1C(=O)NC1CCCCNC1=O)c1cc2ccccc2s1 (centres unmarked) [ANA12],TH+ nerve production and elongation of nerves,"[3]; 1 μM for 5 days, D15 to D20",suppressed TH+ nerve production and elongation of nerves
Cc1c[nH]c(-c2cnc(NCCNc3ccc(C#N)cn3)nc2-c2ccc(Cl)cc2Cl)n1 [CHIR],TUBB3+ neurons and SOX10 neural crest cells compared to LDN alone,"[4]; 3 μM CHIR instead of 2 μM, with 250 nM LDN, days 3-6",more and More
c1ccc2c(-c3cnn4cc(-c5ccc(N6CCNCC6)cc5)cnc34)ccnc2c1 [LDN193189],ALB secretion lower,"[5]; 250 nM LDN193189 alone or in combination with 10 μM SB431542, days 6-10",about ⅓
same,ALB secretion,"[5]; 250 nM, days 3-6",reduced
same,albumin secretion compared to existing HLOs,"[5]; 250 nM, days 3-6",30-40 fold lower
same,reduction of albumin secretion compared to conventional HLOs,[5]; addition Day 6-10,a third
same,gene expression level of liver marker HNF4A,"[6]; 250 nM, 500 nM, 1000 nM",decrease in a LDN concentration-dependent manner
same,gene expression level of liver marker albumin (ALB),"[6]; 250 nM, 500 nM, 1000 nM",decrease in a LDN concentration-dependent manner
same,gene expression of liver marker ALB,"[6]; 250 nM, days 3-6",reduced
same,gene expression of liver marker HNF4A,"[6]; 250 nM, days 3-6",reduced
same,induction to the liver,[6]; timing of addition changed from Day 3-6 to Day 6-10,improves induction to the liver
same,expression of neural crest marker FOXD3,foregut spheroids,increased expression
same,expression of neural crest marker NGFR,foregut spheroids,increased expression
same,expression of neural crest marker SOX10,foregut spheroids,increased expression
same,detection of neurons,"[4]; 250 nM LDN193189 alone or in combination with 10 μM SB431542, days 6-10, rate varies between batches",sometimes detected
same,expression of autonomic marker ASCL1,"[4]; HLOs on day 20, treated days 3-6, real-time PCR",increased
same,frequency of sympathetic generation,[4]; addition Day 6-10,varies between batches
same,neural crest cells and TUBB3/TH+ neurons detected,"[7]; 250 nM, days 3-6",high frequency
same,induction of neural crest cells and TH/TUBB+ sympathetic neurons,"[7]; 250 nM, days 3 to 6",optimal concentrations
same,induction of neural crest cells and TH/TUBB+ sympathetic neurons,"[7]; 500 nM, days 3 to 6",optimal concentrations
same,TH/TUBB+ sympathetic neurons,"[7]; 1000 nM, days 3 to 6",reduced
same,production of neural crest cells,"[7]; 1000 nM, days 3 to 6",reduced
same,"creation of sympathetic neurons, or sympathetic nerves",[7]; LDN 250 (nM),reproducibly
"CCCCCCCC/C=C\CCCCCCCC(=O)O [OA, oleic acid]",amount of TH+ cells in HLO,[8],increasing
NC(=O)c1ccc(-c2nc(-c3ccc4c(c3)OCO4)c(-c3ccccn3)[nH]2)cc1 [SB431542],albumin secretion,"[5]; SB431542 (10 μM) in addition to LDN (250 nM), days 3-6",minimal
same,neural crest cells and TUBB3/TH+ neurons detected,"[4]; 10 μM SB431542 with 250 nM LDN193189, days 3-6",detected earlier (day 15) and more frequently than in the other conditions
same,TUBB+/TH+ sympathetic innervation,"[4]; SB431542 in addition to LDN, Day 3-Day 6, LDN alone had not yet developed innervation on day 15",extensive TUBB+/TH+ sympathetic innervation was formed around day 15
same,TH signal,"[4]; SB alone, 10 μM, days 3-6",no TH signal was observed
same,TUBB3-positive cells / TUBB3+ innervation,"[4]; SB alone, 10 μM, days 3-6",appeared
same,expression of the parasympathetic marker CHAT,"[4]; SB alone, 10 μM, days 3-6",detected in some TUBB3+ nerves
same,TUBB3-positive cells / TUBB3+ innervation,[4]; [11],observed
same,expression of the parasympathetic marker CHAT,[4]; [11],detected in some cells
CC(C)NCC(O)c1ccc(O)c(O)c1 (centres unmarked) [isoproterenol],concentration of cAMP,[1],increased
NC[C@H](O)c1ccc(O)c(O)c1 [noradrenaline],concentration of cAMP,[1],increased
B1,nerves (TUBB3 immunostaining),"[3]; 100 nM for 13 days, D15 to D28",nerves tend to increase and elongate
